According to PubChem BioAssay AID2060899 (Molecular Pharmacology Branch, DTP, NCI, 2025):

Tested on: 565726-208-R1-J5-PDC complex spheroids, growth inhibition
Test: Anticancer human tumor 565726-208-R1-J5-PDC patient-derived pancreatic adenocarcinoma cell line growth inhibition [RAS]
Conditions: for viability, T/C: stronger effect = lower value
In short: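 Multi-cell-type spheroids: tumor cells plus HUVEC endothelial cells and mesenchymal stem cells. RAS-pathway inhibitors were combined with targeted agents, each dosed in half-log steps down from clinical Cmax, or from 10 microM when Cmax was unknown.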
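Further: spheroids exposed to compounds for seven days before readout.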
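Wherever viability, T/C is given: 100% = DMSO vehicle control viability.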

## CC(=O)OC12COC1CC(O)C1(C)C(=O)C(O)C3=C(C)C(OC(=O)C(O)C(NC(=O)OC(C)(C)C)c4ccccc4)CC(O)(C(OC(=O)c4ccccc4)C21)C3(C)C (configuration not stated) + C#Cc1c(F)ccc2cc(O)cc(-c3ncc4c(N5CC6CCC(C5)N6)nc(OCC56CCCN5CC(F)C6)nc4c3F)c12
Curve of first compound, second compound 0.0316 µM
  IC50: < 31.6 nM
Curve of first compound, second compound 0.1 µM
  IC50: < 31.6 nM
Curve of first compound, second compound 0.316 µM
  IC50: < 31.6 nM
Curve of first compound, second compound 1 µM
  IC50: < 31.6 nM
Curve of first compound, second compound 3.16 µM
  IC50: < 31.6 nM
Curve of first compound, second compound 10 µM
  IC50: < 31.6 nM
Second compound 0.0316 µM, first compound 0.0316 µM
  viability, T/C: 18.9%
Second compound 0.0316 µM, first compound 0.1 µM
  viability, T/C: 20.3%
Second compound 0.0316 µM, first compound 0.316 µM
  viability, T/C: 14.2%
Second compound 0.0316 µM, first compound 1 µM
  viability, T/C: 19.1%
Second compound 0.0316 µM, first compound 3.16 µM
  viability, T/C: 21.4%
Second compound 0.0316 µM, first compound 10 µM
  viability, T/C: 27%
Second compound 0.1 µM, first compound 0.0316 µM
  viability, T/C: 16.9%
Second compound 0.1 µM, first compound 0.1 µM
  viability, T/C: 20.3%
Second compound 0.1 µM, first compound 0.316 µM
  viability, T/C: 19.1%
Second compound 0.1 µM, first compound 1 µM
  viability, T/C: 15.5%
Second compound 0.1 µM, first compound 3.16 µM
  viability, T/C: 18.8%
Second compound 0.1 µM, first compound 10 µM
  viability, T/C: 29.8%
Second compound 0.316 µM, first compound 0.0316 µM
  viability, T/C: 18.8%
Second compound 0.316 µM, first compound 0.1 µM
  viability, T/C: 21.2%
Second compound 0.316 µM, first compound 0.316 µM
  viability, T/C: 16.1%
Second compound 0.316 µM, first compound 1 µM
  viability, T/C: 18.1%
Second compound 0.316 µM, first compound 3.16 µM
  viability, T/C: 22.8%
Second compound 0.316 µM, first compound 10 µM
  viability, T/C: 30.4%
Second compound 1 µM, first compound 0.0316 µM
  viability, T/C: 20%
Second compound 1 µM, first compound 0.1 µM
  viability, T/C: 21.3%
Second compound 1 µM, first compound 0.316 µM
  viability, T/C: 14.5%
Second compound 1 µM, first compound 1 µM
  viability, T/C: 17.3%
Second compound 1 µM, first compound 3.16 µM
  viability, T/C: 24.9%
Second compound 1 µM, first compound 10 µM
  viability, T/C: 26.6%
Second compound 3.16 µM, first compound 0.0316 µM
  viability, T/C: 19.3%
Second compound 3.16 µM, first compound 0.1 µM
  viability, T/C: 24.1%
Second compound 3.16 µM, first compound 0.316 µM
  viability, T/C: 23.5%
Second compound 3.16 µM, first compound 1 µM
  viability, T/C: 19.9%
Second compound 3.16 µM, first compound 3.16 µM
  viability, T/C: 25.9%
Second compound 3.16 µM, first compound 10 µM
  viability, T/C: 26.7%
Second compound 10 µM, first compound 0.0316 µM
  viability, T/C: 17.7%
Second compound 10 µM, first compound 0.1 µM
  viability, T/C: 23.9%
Second compound 10 µM, first compound 0.316 µM
  viability, T/C: 22.1%
Second compound 10 µM, first compound 1 µM
  viability, T/C: 23.1%
Second compound 10 µM, first compound 3.16 µM
  viability, T/C: 21%
Second compound 10 µM, first compound 10 µM
  viability, T/C: 22.4%

## C=CC(=O)Nc1cc(Nc2nccc(-c3cn(C)c4ccccc34)n2)c(OC)cc1N(C)CCN(C)C
Compound 0.0316 µM
  viability, T/C: 92.9% [middle of 4 runs]
Compound 0.1 µM
  viability, T/C: 85.7% [middle of 4 runs]
Curve of compound
  IC50: > 1000 nM

## CC1(O)CCCC1n1c(=O)c(C(F)F)cc2cnc(NC3CCN(S(C)(=O)=O)CC3)nc21 (configuration not stated) + CCn1c(-c2cccnc2C(C)OC)c2c3cc(ccc31)N1CCOC(CC(NC(=O)C(C(C)C)N(C)C(=O)C3(F)CCN(C(=O)C#CC(C)(C)N(C)C)CC3)C(=O)N3CCCC(N3)C(=O)OCC(C)(C)C2)C1
Curve of first compound, second compound 0.000949 µM
  IC50: 1580 nM
Curve of first compound, second compound 0.003 µM
  IC50: 1740 nM
Curve of first compound, second compound 0.00949 µM
  IC50: 2480 nM
Curve of first compound, second compound 0.03 µM
  IC50: 2150 nM
Curve of first compound, second compound 0.0949 µM
  IC50: 734 nM
Curve of first compound, second compound 0.3 µM
  IC50: 1650 nM
Second compound 0.000949 µM, first compound 0.0316 µM
  viability, T/C: 89.3%
Second compound 0.000949 µM, first compound 0.1 µM
  viability, T/C: 65.9%
Second compound 0.000949 µM, first compound 0.316 µM
  viability, T/C: 61.5%
Second compound 0.000949 µM, first compound 1 µM
  viability, T/C: 55.9%
Second compound 0.000949 µM, first compound 3.16 µM
  viability, T/C: 48%
Second compound 0.000949 µM, first compound 10 µM
  viability, T/C: 4.71%
Second compound 0.003 µM, first compound 0.0316 µM
  viability, T/C: 92.6%
Second compound 0.003 µM, first compound 0.1 µM
  viability, T/C: 66.7%
Second compound 0.003 µM, first compound 0.316 µM
  viability, T/C: 59.9%
Second compound 0.003 µM, first compound 1 µM
  viability, T/C: 61.9%
Second compound 0.003 µM, first compound 3.16 µM
  viability, T/C: 47.5%
Second compound 0.003 µM, first compound 10 µM
  viability, T/C: 5.57%
Second compound 0.00949 µM, first compound 0.0316 µM
  viability, T/C: 87.1%
Second compound 0.00949 µM, first compound 0.1 µM
  viability, T/C: 73.3%
Second compound 0.00949 µM, first compound 0.316 µM
  viability, T/C: 64%
Second compound 0.00949 µM, first compound 1 µM
  viability, T/C: 65.4%
Second compound 0.00949 µM, first compound 3.16 µM
  viability, T/C: 50.4%
Second compound 0.00949 µM, first compound 10 µM
  viability, T/C: 4.99%
Second compound 0.03 µM, first compound 0.0316 µM
  viability, T/C: 79.3%
Second compound 0.03 µM, first compound 0.1 µM
  viability, T/C: 70.6%
Second compound 0.03 µM, first compound 0.316 µM
  viability, T/C: 64.6%
Second compound 0.03 µM, first compound 1 µM
  viability, T/C: 55%
Second compound 0.03 µM, first compound 3.16 µM
  viability, T/C: 51.5%
Second compound 0.03 µM, first compound 10 µM
  viability, T/C: 5.14%
Second compound 0.0949 µM, first compound 0.0316 µM
  viability, T/C: 86.3%
Second compound 0.0949 µM, first compound 0.1 µM
  viability, T/C: 72.7%
Second compound 0.0949 µM, first compound 0.316 µM
  viability, T/C: 53.8%
Second compound 0.0949 µM, first compound 1 µM
  viability, T/C: 53%
Second compound 0.0949 µM, first compound 3.16 µM
  viability, T/C: 49.9%
Second compound 0.0949 µM, first compound 10 µM
  viability, T/C: 3.75%
Second compound 0.3 µM, first compound 0.0316 µM
  viability, T/C: 68%
Second compound 0.3 µM, first compound 0.1 µM
  viability, T/C: 64.2%
Second compound 0.3 µM, first compound 0.316 µM
  viability, T/C: 54.3%
Second compound 0.3 µM, first compound 1 µM
  viability, T/C: 54.1%
Second compound 0.3 µM, first compound 3.16 µM
  viability, T/C: 45.4%
Second compound 0.3 µM, first compound 10 µM
  viability, T/C: 3.4%
